Laboratory results: patent US8912121B2, “Herbicidal compositions comprising 4-amino-3-chloro-5-fluoro-6-(4-chloro-2-fluoro-3-methoxyphenyl)pyridine-2-carboxylic acid or a derivative thereof and certain PS II inhibitors” (Dow Agrosciences LLC, priority 2012, dated 2014)

Tested on: ECHOR (Echinochloa oryzoides, early watergrass)
Experiment: In-water applied mixtures, transplanted paddy rice, greenhouse
Type: in vivo, Echinochloa oryzoides (Ard.) Fritsch
Conditions: 19 DAA
Method: Weed seeds or nutlets of the desired test plant species were planted in puddled soil (mud) prepared by mixing a shredded, non-sterilized mineral soil (50.5 percent silt, 25.5 percent clay, and 24 percent sand, with a pH of about 7.6 and an organic matter content of about 2.9 percent) and water at a 1:1 volumetric ratio. The prepared mud was dispensed in 365 mL aliquots into 16-ounce (oz.) non-perforated plastic pots with a surface area of 86.59 square centimeters (cm^2) leaving a headspace of 3 centimeters (cm) in each pot Mud was allowed to dry overnight prior to planting or transplanting. Rice seeds were planted in Sun Gro MetroMix® 306 planting mixture, which typically has a pH of 6.0 to 6.8 and an organic matter content of about 30 percent, in plastic plug trays. Seedlings at the second or third leaf stage of growth were transplanted into 840 mL of mud contained in 32-oz. non-perforated plastic pots with a surface area of 86.59 cm^2 4 days prior to herbicide application. The paddy was created by filling the headspace of the pots with 2.5 to 3 cm of water. When required to ensure good germination and healthy plants, a fungicide treatment and/or other chemical or physical treatment was applied. The plants were grown for 4-22 days in a greenhouse with an approximate 14 h photoperiod which was maintained at about 29° C during the day and 26° C. during the night. Nutrients were added as Osmocote® (19:6:12, N:P:K+ minor nutrients) at 2 g per 16-oz. pot and 4 g per 32-oz. pot. Water was added on a regular basis to maintain the paddy flood, and supplemental lighting was provided with overhead metal halide 1000-Watt lamps as necessary. The plants were employed for testing when they reached the first through fourth true leaf stage.
Treatments consisted of the acid or esters of 4-amino-3-chloro-5-fluoro-6-(4-chloro-2-fluoro-3-methoxy-phenyl)pyridine-2-carboxylic acid (compound A) each formulated as an SC (suspension concentrate) and various herbicidal components alone and in combination. Forms of compound A were applied on an acid equivalent basis.
Other herbicidal components were applied on an active ingredient basis and included photosystem II (PSII)-inhibits propanil formulated as […] bentazon-sodium formulated as Basagran®, and simetryne (technical grade material).
Treatment requirements for each compound or herbicidal component were calculated based upon the rates being tested, the concentration of active ingredient or acid equivalent in the formulation, an application volume of 2 mL per component per pot, and an application area of 86.59 cm^2 per pot.
For formulated compounds, a measured amount was placed in an individual 100 or 200 mL glass vial and was dissolved in a volume of 1.25% (v/v) Agri-Dex® crop oil concentrate to obtain application solutions.
For technical grade compounds, a weighed amount was placed in an individual 100 to 200 mL glass vial and was dissolved in a volume of acetone to obtain concentrated stock solutions. […] The concentrated stock solutions obtained were diluted with an equivalent volume of an aqueous mixture containing 2.5% (v/v) crop oil concentrate so that the final application solutions contained 1.25% (v/v) crop oil concentrate.
Applications were made by injecting with a pipetter appropriate amounts of the application solutions, individually and sequentially, into the aqueous layer of the paddy. Control plants were treated in the same manner with the solvent blank. Applications were made so that all treated plant material received the same concentrations of acetone and crop oil concentrate.
The treated plants and control plants were placed in a greenhouse as described above and water was added as needed to maintain a paddy flood. After approximately 3 weeks the condition of the test plants as compared with that of the untreated plants was determined visually and scored on a scale of 0 to 100 percent where 0 corresponds to no injury or growth inhibition and 100 corresponds to complete kill. […]

Structure (SMILES): COc1c(Cl)ccc(-c2nc(C(=O)OCc3ccccc3)c(Cl)c(N)c2F)c1F [Compound A Benzyl Ester, benzyl ester of 4-amino-3-chloro-5-fluoro-6-(4-chloro-2-fluoro-3-methoxy-phenyl)pyridine-2-carboxylic acid]
- Visual Weed Control (%) Obs (8 g ae/ha): 10%
- Visual Weed Control (%) Obs (16 g ae/ha): 20%
- Visual Weed Control (%) Obs (32 g ae/ha): 25%
